The results in this text go back to US20240140953A1, “INHIBITORS OF MENIN-MLL INTERACTION” (BIOMEA FUSION, INC., priority 2018, published 2024).

pIC50: −log10 of the molar value. Like-named read-outs stand apart in the source and are kept apart here. Some results are limits rather than exact numbers.

One assay has as its system MV4-11. Put plainly: Long term proliferation, Cell Titer-Glo (Table 3B), MV4-11. The format is cell-based. The settings on record: Homo sapiens, MV4-11, Cell Titer-Glo.
The next assay has as its system KG-1. The experiment in a line: Long term proliferation, Cell Titer-Glo (Table 3B), KG-1. In kind it is cell-based. As to conditions: Homo sapiens, KG-1, Cell Titer-Glo. In general terms: In ATP-based viability assays light output follows the ATP content of the culture.
[1] abbreviates: 96 h, Day 4, read-out: Day 4 IC50.
Setting [2] is: 168 h, Day 7, read-out: Day 7 IC50.
[3] abbreviates: 264 h, Day 11, read-out: Day 11 IC50.
Where [4] appears, read: 336 h, Day 14, read-out: Day 14 IC50.

What is called pIC50 is −log10 of the IC50, conventionally taken in molar units. On to `O=C(Nc1ccc(-c2cc3c(N4CCOCC4)ncnc3[nH]2)cc1)Nc1cc(-c2cccnc2)n[nH]1` [Compound 9, 1-{4-[4-(morpholin-4-yl)-7H-pyrrolo[2,3-d]pyrimidin-6-yl]phenyl}-3-[3-(pyridin-3-yl)-1H-pyrazol-5-yl]urea], for which the negative-log IC50 (pIC50) in the assay with MV4-11 (setting [1]) is 6.13; in the assay on MV4-11 (setting [2]) it was 6.42; with MV4-11 (setting [3]) it was 6.49; in the assay with MV4-11 (setting [4]), 6.68; in the assay with KG-1 (setting [1]), under 5.30; with KG-1 (setting [2]) it was 5.32. For the same molecule, the figures for the pIC50 with KG-1 (setting [3]) and in the assay with KG-1 (setting [4]) were 5.77 and 5.91, respectively.
